Legend:
[1] = test system: ICR mice, cutaneous barrier function disrupted by acetone/diethylether and water; assay: Scratching action of mice with disrupted cutaneous barrier function, subcutaneous administration (Example 1); assay type: in vivo, mouse; details: subcutaneous 10 mg/kg at barrier-disrupted site, 15 min before recording; scratching counted for 2 hours; mean ± standard error, 8 mice
Method: A number of scratching action of 8 mice per 2 hours is shown by the average percentage±standard error based on the average of the control group (100%). “S” represents the control group which received saline, “L” represents L-NAME administrated group and “D” represents D-NAME administrated group.
The evaluation of the therapeutic effects of the pharmaceutical composition of the present invention may be conducted by using the small test animals produced by the method developed by the inventors, such as mice of which the cutaneous barrier function have been disrupted. Such animals may be produced according to the following procedure: An noninflammation dermal lesion caused by the disruption of cutaneous barrier function may be induced by degreasing the small test animals by applying an organic solvent to the glabrous skin of the animals and then treating with water. […] For example, the hydration of the stratum corneum can be determined by a technique of conductimetry, determination of electrostatic capacity or FT-IR method. Transepidermal water loss can be non-invasively determined with an electric measuring instrument or the like so as not to influence the scratching action. […]

NC mouse = details: administration of NOS inhibitor; cited from earlier work

Row | Compound | number of the scratching action relative to saline control group (100%) [1] [%] | effect on scratching action (NC mouse)
1 | COC(=O)[C@H](N)CCCN=C(N)N[N+](=O)[O-] [D-NAME, Nw-nitro-D-arginine methyl ester] | 90.9±15.2 | 
2 | COC(=O)[C@@H](N)CCCNC(=N)N[N+](=O)[O-] [L-NAME, Nw-nitro-L-arginine methyl ester] | 27.9±6.4 | scratching action can be suppressed

From patent publication US20020156129A1, “Method of treating pruritus and a pharmaceutical composition for the method” (priority 2001, published 2002)
